In patent US12551463B2, “Dosing of a Bruton's tyrosine kinase inhibitor” (Loxo Oncology, Inc., priority 2019, dated 2026):
Read-outs that look alike come from different tables or passages of the source.

Experiments:
MZL = experiment: Phase 1/2 clinical study, MZL patients; assay type: in vivo, human
Excerpt: (§1) The study is an open-label, multi-center study of oral BTK-I to evaluate safety and efficacy as monotherapy and as part of combination therapy in patients with CLL/SLL and NHL who have failed or are intolerant to standard of care. This study includes monotherapy as well as combination treatment parts. The monotherapy part includes Phase 1 dose escalation and dose expansion as well as Phase 2. The combination therapy part is a Phase 1b (safety assessment and expansion) of BTK-I in combination with venetoclax, with or without anti-CD20 therapy. Phase 1 dose escalation will proceed prior to start of Phase 1b or Phase 2. Once a recommended Phase 2 dose (RP2D) is identified in Phase 1, enrollment can commence to the Phase 1b combination therapies and Phase 2 monotherapy cohorts. […]
(§2) The primary objective of the Phase 2 is to assess the primary anti-tumor activity of BTK-I based on overall response rate (ORR) and as assessed by the Independent Review Committee. […]
(§3) Dosing during Phase 2 will be at the RP2D of 200 mg QD. […] The dose (and schedule) chosen for Phase 2 may be changed by the SRC based on emerging data (e.g., PK, safety, and/or efficacy) as long as the new dose is not greater than the highest dose that has a DLT <33% and is determined to be safe by the SRC in Phase 1. […]

TMD8 BTK C481S cells = experiment: In vivo mouse xenograft study, TMD8 BTK C481S; parameters: species or system mice; conditions: BTK-I BID alone; BTK C481S driven TMD8 (DLBCL) xenograft
Experimental: (§4) In all studies, test articles are administered alone and in combination, following different dosing regimens.
(§5) Human TMD8 BTK WT, TMD8 BTK C481S or REC-1 cells are injected subcutaneously in the right flank of mice. When tumors reach a mean volume between 150 mm^3 and 400 mm^3, mice are randomized based on their tumor volumes. Mice are next dosed for 14 to 23 days depending on the study design. The potencies of the compounds stand-alone or in combination on the inhibition of the tumor growth are assessed based on the tumor volume changes and weights after collection at the end of the study. Additionally, in the TMD8 studies, the plasma concentrations of test articles are measured at multiple time points after the last dose.

BTK wild type = target: T1, BTK wild type (Homo sapiens, UniProt Q06187); experiment: BTK Y223 autophosphorylation in HEK293 cells expressing BTK wild type; assay type: cell-based; conditions: for IC90: HEK293, wild type BTK
T1 construct: expressed in transfected cells
T1 sequence (Q06187 whole entry): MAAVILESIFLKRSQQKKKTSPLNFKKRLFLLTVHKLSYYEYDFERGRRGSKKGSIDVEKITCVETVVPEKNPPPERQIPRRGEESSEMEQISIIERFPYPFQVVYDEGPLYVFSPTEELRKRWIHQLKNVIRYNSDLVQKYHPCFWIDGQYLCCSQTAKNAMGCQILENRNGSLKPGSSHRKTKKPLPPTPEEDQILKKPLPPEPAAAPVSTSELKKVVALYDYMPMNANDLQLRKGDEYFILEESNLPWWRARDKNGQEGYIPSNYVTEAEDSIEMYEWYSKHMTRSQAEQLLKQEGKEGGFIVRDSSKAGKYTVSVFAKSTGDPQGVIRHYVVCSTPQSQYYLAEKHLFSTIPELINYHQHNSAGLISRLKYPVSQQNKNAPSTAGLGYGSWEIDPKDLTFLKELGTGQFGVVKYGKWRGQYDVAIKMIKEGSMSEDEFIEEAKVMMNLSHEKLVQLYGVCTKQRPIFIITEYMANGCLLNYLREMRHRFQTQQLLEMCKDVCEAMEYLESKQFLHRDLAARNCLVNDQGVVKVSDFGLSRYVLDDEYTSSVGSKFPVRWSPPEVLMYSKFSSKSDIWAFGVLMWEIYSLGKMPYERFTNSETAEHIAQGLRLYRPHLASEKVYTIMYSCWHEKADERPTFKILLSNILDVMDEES
Experimental: HEK293 cell lines stably expressing BTK wild type and the mutant form C481S are generated using standard transfection methods. For assessment of cellular inhibition potency, cells are grown in DMEM+10% FBS+1 μg/mL puromycin (complete growth media) at 37° C. in a C02 incubator. Cells are harvested according to standard protocols using TrypLE (Gibco #12604-013), counted, resuspended in complete growth media, and added to 6 well assay plates at […] in 2 mL. Plates are incubated overnight at 37° C. with 5% C02. The following day, cells are treated for 2 hours with BTK-I, prepared as a 6-point dose curve, 1:3 dilution series with final concentrations starting at a maximum concentration of 300 nM and a constant DMSO concentration of 0.5% (v/v). Control wells contain 0.5% (v/v) DMSO alone (no inhibition control). All samples are tested in triplicate. Following compound incubation, growth medium is discarded, cells are washed with DPBS (1×) (Gibco #14190-144) and lysed in 1 mL of CelLytic™ M (Sigma #C2978) containing 1× Halt phosphatase and protease inhibitor cocktails (Pierce #78442). Plates are placed on ice for 1 hour with gentle agitation and stored at −80° C. overnight. The next day, cell lysates are placed in 1.5 mL tubes and cleared by centrifugation at 16,000×g for 10 minutes at 4° C. Supernatants are quantified by BCA (Pierce #23225) and stored at −80° C. Samples are analyzed by Simple Western (Protein Simple) with anti-phospho-BTK (Y223) (Cell signaling technologies (cst) #5082) and anti-BTK (cst #8547). β-actin is the used as a loading control and detected by regular Western blot with an anti-β-actin antibody (cst #4970). Simple Western results are analyzed with Compass software (Protein Simple). BTK Y223 phosphorylation signal is normalized to total BTK, and IC50 values are calculated using a 4-parameter fit in GraphPad Prism 7.04 software.

REC-1 cells = experiment: In vivo mouse xenograft study, REC-1; parameters: species or system mice; conditions: BTK-I BID alone; BTK WT driven REC-1 (MCL) xenograft
Experimental: as §4, §5

follicular lymphoma = experiment: Phase 1/2 clinical study, follicular lymphoma patients; assay type: in vivo, human; conditions: among 8 efficacy-evaluable patients
Excerpt: as §1, §2, §3

Compound: COc1ccc(F)cc1C(=O)NCc1ccc(-c2nn([C@@H](C)C(F)(F)F)c(N)c2C(N)=O)cc1 [BTK-I, (S)-5-amino-3-(4-((5-fluoro-2-methoxybenzamido)methyl)phenyl)-1-(1,1,1-trifluoropropane-2-yl)-1H-pyrazole-4-carboxamide]
- responses/patients (MZL): 2/9
- inhibition of xenograft tumor growth (TMD8 BTK C481S cells): potently inhibited the growth
- IC90 (BTK wild type; read-out: IC90): 0.0774 µM
- IC90 (BTK wild type; read-out: IC90 translated to total drug in human plasma): ~0.806 µg/mL
- IC50 (BTK wild type; expressed as plasma concentration, read-out: IC50, inhibition of BTK in vitro): 0.192 µM
- inhibition of xenograft tumor growth (REC-1 cells): potently inhibited the growth
- patients with responses (follicular lymphoma): 4
